# Tested on: PC-3 cell proliferation
# Assay: Cell proliferation assay (WST-1), PC-3
# Type: cell-based
# Settings: Homo sapiens; PC-3 cells, WST-1 readout; read-out: inhibitory activity against PC-3 cell proliferation (IC50 range)
# Description: A panel of cancer cell lines was obtained from the DCTP Tumor Repository, National Cancer Institute (Frederick, Md.) or ATCC (Rockville, Md.). Cell cultures were maintained in Hyclone RPMI 1640 medium (Logan, Utah) supplemented with 10% fetal bovine serum and 20 mM HEPES buffer, final pH 7.2, at 37° C. with a 5% CO2 atmosphere. Cultures were maintained at sub-confluent densities. Human umbilical vein endothelial cells (HUVEC) were purchased from Clonetics, a division of Cambrex (Walkersville, Md.). Cultures were established from cryopreserved stocks using Clonetics EGM-2 medium supplemented with 20 mM HEPES, final pH 7.2, at 37° C. with a 5% CO2 atmosphere.
# For proliferation assays, cells were seeded with the appropriate medium into 96 well plates at 1,000-2,500 cells per well, depending on the cell line, and were incubated overnight. The following day, test compound, DMSO solution (negative control), or Actinomycin D (positive control) was added to the appropriate wells as 10× concentrated stocks prepared in phosphate buffered saline. The cell plates were then incubated for an additional 2-5 days, depending on the cell line, to allow proliferation to occur. To measure cell density, 50 μL of WST-1 solution (Roche Applied Science, Ind.) diluted 1:5 in phosphate buffered saline was added to each well, and the cells incubated for an additional 1-5 hrs., again depending on the cell line. Optical density was determined for each well at […] using a Tecan GeniosPro plate reader (RTP, NC). The percentage of cell growth was determined by comparing the cell growth in the presence of test compounds to the cells treated with DMSO vehicle (control, 100% growth) and cells treated with Actinomycin D (10 μM, 0% growth). […]
row,SMILES,IC50
1,"Cc1nn(-c2ccc(C(N)=O)c(NC(CCO)CCO)c2)c2c1C(=O)CC(C)(C)C2 [Compound 121, 2-{[3-hydroxy-1-(2-hydroxyethyl)propyl]amino}-4-(3,6,6-trimethyl-4-oxo-4,5,6,7-tetrahydro-1H-indazol-1-yl)benzamide]",0.5 to 5 µM
2,"CCCCOc1cc(C(N)=O)ccc1-n1cc(C)c2c1CC(C)(C)CC2=O [Compound 53, 3-butoxy-4-(3,6,6-trimethyl-4-oxo-4,5,6,7-tetrahydroindol-1-yl)benzamide]",5 to 50 µM

# Tested on: HSP-90 (heat shock protein 90)
# Assay: Determination of affinity for HSP-90 (elution from purine affinity column, SDS-PAGE densitometry)
# Type: binding
# Design: key: +++: very high; ++: high; +: moderate
# Settings: elution of HSP-90 from purine affinity column with 20, 100 and 500 μM test compound
# Description: Affinity of test compounds for HSP-90 was determined as follows: Protein mixtures obtained from a variety of organ tissues (for example: spleen, liver and lung) were reversibly bound to a purine affinity column to capture purine-binding proteins, especially HSP-90. The purine affinity column was washed several times, and then eluted with 20 μM, 100 μM, and 500 μM of test compound. Compounds of Formula I elute HP-90 in a dose-dependent manner vs. a control elution using dimethylsulfoxide. The elution profile of Formula I compounds was determined by 1-dimensional SDS polyacrylamide gel electrophoresis. Gels were stained with a fluorescent stain such as sypro ruby (a highly sensitive fluorescent protein stain that can readily detect less than 1 fmol of total protein, i.e., less than 0.04 ng for a 40 kDa protein) or silver nitrate. The gels were imaged using a standard flat bed gel imager and the amount of protein estimated by densitometry. The percent of HSP-90 protein eluted from the column at each concentration was determined and IC50 values were calculated from these estimates. The identity of a band containing HSP-90 was determined by protein sequencing using mass spectroscopy.
# Compounds of the invention are inhibitors of HSP-90 (heat shock protein 90). Several exemplary compounds useful in the methods of the invention are listed below.
row,SMILES,relative binding affinity to HSP-90
1,"Cc1nn(-c2ccc(C(N)=O)c(NC(CCO)CCO)c2)c2c1C(=O)CC(C)(C)C2 [Compound 121, 2-{[3-hydroxy-1-(2-hydroxyethyl)propyl]amino}-4-(3,6,6-trimethyl-4-oxo-4,5,6,7-tetrahydro-1H-indazol-1-yl)benzamide]",+++
2,"COc1cc(Nc2cc(-n3ccc4c3CCCC4=O)ccc2C(N)=O)cc(OC)c1OC [Compound 86, 4-(4-oxo-4,5,6,7-tetrahydro-1H-indol-1-yl)-2-[(3,4,5-trimethoxyphenyl)amino]benzamide]",++
3,"COCCNc1cc(-n2nc(C)c3c2CC(C)(C)CC3=O)ccc1C(N)=O [Compound 95, 2-[(2-methoxyethyl)amino]-4-(3,6,6-trimethyl-4-oxo-4,5,6,7-tetrahydro-1H-indazol-1-yl)benzamide]",+++
4,"Cc1cc2c(n1-c1ccc(C(N)=O)c(Nc3ccc(Cl)cc3)c1)CC(C)(C)CC2=O [Compound 73, 2-[(4-chlorophenyl)amino]-4-(2,6,6-trimethyl-4-oxo-4,5,6,7-tetrahydro-1H-indol-1-yl)benzamide]",+
5,"C=CCNc1cc(-n2cc(C)c3c2CC(C)(C)CC3=O)ccc1C(N)=O [Compound 50, 2-(allylamino)-4-(3,6,6-trimethyl-4-oxo-4,5,6,7-tetrahydroindol-1-yl)benzamide]",+++
6,"Cc1nn(-c2ccc(C(N)=O)c(NC3CN(S(C)(=O)=O)C3)c2)c2c1C(=O)CC(C)(C)C2 [Compound 131, 2-{[1-(methylsulfonyl)azetidin-3-yl]amino}-4-(3,6,6-trimethyl-4-oxo-4,5,6,7-tetrahydro-1H-indazol-1-yl)benzamide]",++
7,"CCCCOc1cc(C(N)=O)ccc1-n1cc(C)c2c1CC(C)(C)CC2=O [Compound 53, 3-butoxy-4-(3,6,6-trimethyl-4-oxo-4,5,6,7-tetrahydroindol-1-yl)benzamide]",++
8,"Cc1cc2c(n1-c1cnc(C(N)=O)c(Nc3ccccc3)c1)CC(C)(C)CC2=O [Compound 75, 3-anilino-5-(2,6,6-trimethyl-4-oxo-4,5,6,7-tetrahydro-1H-indol-1-yl)pyridine-2-carboxamide]",+++
9,"Cc1cn(-c2ccc(C(N)=O)c(NCCN3CCOCC3)c2)c2c1C(=O)CC(C)(C)C2 [Compound 96, 2-[(2-morpholin-4-ylethyl)amino]-4-(3,6,6-trimethyl-4-oxo-4,5,6,7-tetrahydro-1H-indol-1-yl)benzamide]",+++
10,"Cc1cc2c(n1-c1ccc(C(N)=O)c(-n3ccnc3)c1)CC(C)(C)CC2=O [Compound 80, 2-(1H-imidazol-1-yl)-4-(2,6,6-trimethyl-4-oxo-4,5,6,7-tetrahydro-1H-indol-1-yl)benzamide]",+
11,"CCn1nccc1Nc1cc(-n2c(C)cc3c2CC(C)(C)CC3=O)ccc1C(N)=O [Compound 83, 2-[(1-ethyl-1H-pyrazol-5-yl)amino]-4-(2,6,6-trimethyl-4-oxo-4,5,6,7-tetrahydro-1H-indol-1-yl)benzamide]",+++
12,"CC1(C)CC(=O)c2c(C(F)F)nn(-c3ccc(C(N)=O)c(NC4CCSCC4)c3)c2C1 [Compound 32, 4-(3-Difluoromethyl-6,6-dimethyl-4-oxo-4,5,6,7-tetrahydro-indazol-1-yl)-2-(tetrahydro-thiopyran-4-ylamino)-benzamide]",+++
13,"Cc1cn(-c2ccc(C(N)=O)c(NC3CCN(C(=O)CN(C)C)CC3)c2)c2c1C(=O)CC(C)(C)C2 [Compound 109, 2-{[1-(N,N-dimethylglycyl)piperidin-4-yl]amino}-4-(3,6,6-trimethyl-4-oxo-4,5,6,7-tetrahydro-1H-indol-1-yl)benzamide]",++
14,"Cc1cn(-c2ccc(C(N)=O)c(NC3CCc4ccccc43)c2)c2c1C(=O)CC(C)(C)C2 (centres unmarked) [Compound 54, 2-(2,3-dihydro-1H-inden-1-ylamino)-4-(3,6,6-trimethyl-4-oxo-4,5,6,7-tetrahydroindol-1-yl)benzamide]",+
15,"CC(=O)OCC(=O)NCCNc1cc(-n2cc(C)c3c2CC(C)(C)CC3=O)ccc1C(N)=O [Compound 111, 2-[(2-{[2-(aminocarbonyl)-5-(3,6,6-trimethyl-4-oxo-4,5,6,7-tetrahydro-1H-indol-1-yl)phenyl]amino}ethyl)amino]-2-oxoethyl acetate]",+++
16,"CC1(C)CC(=O)c2c(C(F)(F)F)nn(-c3ccc(C(N)=O)c(NCC(O)CO)c3)c2C1 (centres unmarked) [Compound 30, 2-(2,3-Dihydroxy-propylamino)-4-(6,6-dimethyl-4-oxo-3-trifluoromethyl-4,5,6,7-tetrahydro-indazol-1-yl)-benzamide]",++
17,"Cc1nn(-c2ccc(C(N)=O)c(NCCCS(C)(=O)=O)c2)c2c1C(=O)CC(C)(C)C2 [Compound 132, 2-{[3-(methylsulfonyl)propyl]amino}-4-(3,6,6-trimethyl-4-oxo-4,5,6,7-tetrahydro-1H-indazol-1-yl)benzamide]",+++
18,"Cc1cc2c(n1-c1ccc(C(N)=O)c(N3CCOCC3)c1)CC(C)(C)CC2=O [Compound 79, 2-morpholin-4-yl-4-(2,6,6-trimethyl-4-oxo-4,5,6,7-tetrahydro-1H-indol-1-yl)benzamide]",+
19,"Cc1nn(-c2ccc(C(N)=O)c(N[C@H]3CCN(S(C)(=O)=O)C3)c2)c2c1C(=O)CC(C)(C)C2 [Compound 135, 2-{[(3S)-1-(methylsulfonyl)pyrrolidin-3-yl]amino}-4-(3,6,6-trimethyl-4-oxo-4,5,6,7-tetrahydro-1H-indazol-1-yl)benzamide]",+++
20,"COc1cc(Nc2cc(-n3nc(C(F)(F)F)c4c3CC(C)(C)CC4=O)ccc2C(N)=O)cc(OC)c1OC [Compound 107, 4-[6,6-dimethyl-4-oxo-3-(trifluoromethyl)-4,5,6,7-tetrahydro-1H-indazol-1-yl]-2-[(3,4,5-trimethoxyphenyl)amino]benzamide]",++
21,"C=CCNc1cc(-n2ccc3c2CCCC3=O)ccc1C(N)=O [Compound 88, 2-(allylamino)-4-(4-oxo-4,5,6,7-tetrahydro-1H-indol-1-yl)benzamide]",++
22,"COc1ccc(Nc2cc(-n3c(C)cc4c3CC(C)(C)CC4=O)ccc2C(N)=O)cn1 [Compound 87, 2-[(6-methoxypyridin-3-yl)amino]-4-(2,6,6-trimethyl-4-oxo-4,5,6,7-tetrahydro-1H-indol-1-yl)benzamide]",++
23,"C=CCCc1nn(-c2ccc(C(N)=O)cc2)c2c1C(=O)CC(C)(C)C2 [Compound 134, 4-(3-but-3-en-1-yl-6,6-dimethyl-4-oxo-4,5,6,7-tetrahydro-1H-indazol-1-yl)benzamide]",++
24,"Cc1nn(-c2ccc(C(N)=O)c(NCCCN3CCCC3=O)c2)c2c1C(=O)CC(C)(C)C2 [Compound 34, 2-[3-(2-Oxo-pyrrolidin-1-yl)-propylamino]-4-(3,6,6-trimethyl-4-oxo-4,5,6,7-tetrahydro-indazol-1-yl)-benzamide]",++
25,"Cc1nn(-c2ccc(C(N)=O)c(Nc3ccc(=O)[nH]c3)c2)c2c1C(=O)CC(C)(C)C2 [Compound 115, 2-[(6-oxo-1,6-dihydropyridin-3-yl)amino]-4-(3,6,6-trimethyl-4-oxo-4,5,6,7-tetrahydro-1H-indazol-1-yl)benzamide]",+++
26,"C=CCNc1cc(-n2c(C)c(C)c3c2CCCC3=O)ccc1C(N)=O [Compound 91, 2-(allylamino)-4-(2,3-dimethyl-4-oxo-4,5,6,7-tetrahydro-1H-indol-1-yl)benzamide]",++
27,"Cc1cc2c(n1-c1ccc(C(N)=O)c(N[C@H](C(=O)O)C(C)C)c1)CC(C)(C)CC2=O [Compound 78, N-[2-(aminocarbonyl)-5-(2,6,6-trimethyl-4-oxo-4,5,6,7-tetrahydro-1H-indol-1-yl)phenyl]-L-valine]",+

# Source: patent US7928135B2, “Benzene, pyridine, and pyridazine derivatives” (Serenex, Inc., priority 2005, dated 2011)
